Measured values published in ChEMBL document CHEMBL1201862, “PubChem BioAssay data set” (2004).
Blank lines part the entries; values can stand above or below the compound they belong to. Calls of active or inactive are those of the source.

Experiments:
Caspase-7 = Caspase-7 (Homo sapiens, UniProt P55210); assay: potency of procaspase-7 enzyme activation – biochemical, absorbance, human, dual procaspase-3/-7 activator project, dose response (AID 504330)
Caspase-3 = biological target: T1, Caspase-3 (Homo sapiens, UniProt P42574); assay: activators of human procaspase-3 D3A mutant – biochemical, absorbance, PC-3 D3A mutant, counter-screen for dual procaspase-3/7 activator project, dose response (AID 504328)
T1 sequence (P42574 whole entry): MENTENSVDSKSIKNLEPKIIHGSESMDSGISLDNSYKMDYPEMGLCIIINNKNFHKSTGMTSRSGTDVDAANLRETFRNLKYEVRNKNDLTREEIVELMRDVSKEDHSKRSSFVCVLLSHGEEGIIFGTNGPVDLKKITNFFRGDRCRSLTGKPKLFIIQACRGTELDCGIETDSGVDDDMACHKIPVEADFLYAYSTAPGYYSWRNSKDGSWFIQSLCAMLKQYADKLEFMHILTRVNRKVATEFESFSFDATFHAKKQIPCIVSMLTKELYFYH

[1] = biological target: Neurotensin receptor type 1 (Homo sapiens, UniProt P30989); assay type: functional;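 further: Image-based confirmatory dose-response assay measuring agonist activity at NTR1; NTR1-expressing U2OS osteosarcoma cells imaged for beta-arrestin GFP spot formation; agonist potency where compounds increase beta-arrestin recruitment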
Chain of Neurotensin receptor type 1 (P30989 whole entry): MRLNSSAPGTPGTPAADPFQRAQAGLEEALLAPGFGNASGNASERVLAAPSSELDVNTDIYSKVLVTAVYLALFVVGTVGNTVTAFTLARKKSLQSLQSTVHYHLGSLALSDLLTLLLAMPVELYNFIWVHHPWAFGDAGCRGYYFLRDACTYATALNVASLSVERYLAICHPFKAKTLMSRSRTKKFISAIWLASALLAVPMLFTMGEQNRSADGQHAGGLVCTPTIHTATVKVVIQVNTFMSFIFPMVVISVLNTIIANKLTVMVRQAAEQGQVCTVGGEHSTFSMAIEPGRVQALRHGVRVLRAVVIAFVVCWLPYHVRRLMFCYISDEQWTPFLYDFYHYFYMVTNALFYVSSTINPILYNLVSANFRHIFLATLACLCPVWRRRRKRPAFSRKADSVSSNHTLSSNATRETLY

HEK293 [2] = assay: membrane integrity loss in HEK cells – cell-based, fluorescence, cytotoxicity control for IDE activator project, dose response (AID 588440); assay type: functional; conditions: Homo sapiens;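 further: cytotoxicity by LDH release measuring loss of membrane integrity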
INS1 = assay: INS-1E survival protection against cytokine death – cell-based, luminescence, retest, dose response (AID 449756); assay type: functional; conditions: Rattus norvegicus;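 further: cell death triggered by IL-1 beta plus TNF-alpha plus IFN-gamma mixture; protective hits raise ATP signal compared with cytokine alone wells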
Insulin-degrading enzyme [3] = biological target: T2, Insulin-degrading enzyme (Homo sapiens, UniProt P14735); assay: cellular IDE activation of Abeta substrate cleavage – fluorescence polarization, HEK cells, dose response (AID 588439); assay type: functional, cell-based
T2 sequence (P14735 whole entry): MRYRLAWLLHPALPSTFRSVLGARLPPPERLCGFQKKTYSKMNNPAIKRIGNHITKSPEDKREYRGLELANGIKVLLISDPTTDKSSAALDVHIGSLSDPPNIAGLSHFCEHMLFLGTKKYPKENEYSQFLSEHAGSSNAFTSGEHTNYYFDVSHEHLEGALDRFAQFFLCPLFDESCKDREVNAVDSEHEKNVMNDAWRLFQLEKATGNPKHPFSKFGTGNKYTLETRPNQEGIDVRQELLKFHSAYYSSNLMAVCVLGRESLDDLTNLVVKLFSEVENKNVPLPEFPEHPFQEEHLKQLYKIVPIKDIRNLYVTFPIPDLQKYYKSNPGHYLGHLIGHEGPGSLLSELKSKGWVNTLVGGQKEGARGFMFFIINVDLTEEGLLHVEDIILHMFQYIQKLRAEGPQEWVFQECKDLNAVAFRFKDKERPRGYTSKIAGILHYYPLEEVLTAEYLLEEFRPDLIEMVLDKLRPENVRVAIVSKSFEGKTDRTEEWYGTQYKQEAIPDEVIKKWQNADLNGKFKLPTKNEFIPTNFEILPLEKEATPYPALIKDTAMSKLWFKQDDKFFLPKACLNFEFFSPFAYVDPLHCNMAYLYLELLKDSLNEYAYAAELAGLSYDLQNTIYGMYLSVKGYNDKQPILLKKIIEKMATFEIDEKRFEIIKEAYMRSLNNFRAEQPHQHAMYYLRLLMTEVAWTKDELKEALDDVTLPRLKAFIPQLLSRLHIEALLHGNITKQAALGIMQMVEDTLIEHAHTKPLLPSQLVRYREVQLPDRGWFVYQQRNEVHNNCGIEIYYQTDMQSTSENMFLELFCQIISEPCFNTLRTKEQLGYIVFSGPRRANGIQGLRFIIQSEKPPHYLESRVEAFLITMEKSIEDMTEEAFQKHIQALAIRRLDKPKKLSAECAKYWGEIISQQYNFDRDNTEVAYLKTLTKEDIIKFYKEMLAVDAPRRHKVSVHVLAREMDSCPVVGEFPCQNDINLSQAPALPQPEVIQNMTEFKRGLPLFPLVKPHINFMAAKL

[4] = HIV-1 AD8 envelope cell-cell fusion blockers – cherry-pick, dose response (AID 652062); assay type: functional, cell-based;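 further: luciferase signal from cell-cell fusion driven by HIV-1 clade B AD8 Env; potency is for inhibitors of fusion seen as a drop in luminescence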
[5] = biological target: G-protein coupled receptor 55 (Homo sapiens, UniProt Q9Y2T6); assay: selective activators of receptor GPR55 – imaging, U2OS cells, beta-arrestin-GFP redistribution, primary screen (AID 1961); assay type: functional
Chain of G-protein coupled receptor 55 (Q9Y2T6 whole entry): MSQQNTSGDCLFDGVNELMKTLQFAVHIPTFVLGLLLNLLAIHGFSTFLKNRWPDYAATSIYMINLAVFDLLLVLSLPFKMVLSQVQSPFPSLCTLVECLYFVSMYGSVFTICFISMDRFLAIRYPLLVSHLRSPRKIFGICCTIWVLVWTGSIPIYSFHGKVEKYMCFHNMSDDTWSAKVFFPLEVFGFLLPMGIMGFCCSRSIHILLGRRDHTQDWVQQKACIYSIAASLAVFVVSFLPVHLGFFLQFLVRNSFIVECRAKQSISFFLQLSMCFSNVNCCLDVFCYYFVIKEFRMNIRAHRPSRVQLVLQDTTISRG

[6] = Trypanosoma cruzi growth suppression in host cells – NIH3T3 host cells, beta-gal luminescence, confirmation (AID 2044); assay type: functional, cell-based;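 further: intracellular parasites grown in NIH/3T3 mouse fibroblasts as host cells; luminescent beta-galactosidase reporter signal from transgenic T. cruzi replicating inside host cells; inhibitors lower the luminescence signal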
HEK293 [7] = assay: optical interference in Abeta FP readout, dose response, artefact control for IDE activator project, biochemical, fluorescence polarization (AID 588442); assay type: functional, cell-based; conditions: Homo sapiens
[8] = NIH3T3 cell viability loss – ATP luminescence, mouse fibroblasts, counter-screen, dose response (AID 2010); assay type: functional, cell-based;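 further: cells exposed to compound for about 90 hours before reading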
[9] = viability loss in CEM21 cells – cell-based, CellTiter-Glo luminescence, cherry-picked, cytotoxicity control for viral fusion inhibitor project, dose response (AID 652042); assay type: functional;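 further: potency for signal decrease meaning cytotoxicity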
[10] = blockers of HIV-1 envelope-mediated cell-cell fusion – cherry-pick, dose response (AID 652057); assay type: functional, cell-based
[11] = blockers of HIV-1 ZM109 envelope-driven cell-cell fusion – HeLa effector, CEM target cells, luciferase, cherry-pick, dose response (AID 652058); assay type: functional, cell-based;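 further: luciferase signal from HIV-1 Env mediated cell-cell fusion of effector and target cells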
[12] = off-target signal loss in HeLa-CEM21 co-culture – HeLa F-luc CTL cells, cherry-picked, counter-screen for HIV-1 Env fusion inhibitor project, dose response (AID 652040); assay type: functional, cell-based;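 further: potency for signal decrease marking cytotoxic or nonspecific inhibition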
Insulin-degrading enzyme [13] = biological target: T2, Insulin-degrading enzyme; assay: recombinant IDE activation, cell-free – biochemical, fluorescence polarization, counter-screen for IDE activator project, dose response (AID 588681)
[14] = biological target: T3, Tyrosine-protein phosphatase non-receptor type 7 (Homo sapiens, UniProt P35236); assay: inhibition of hematopoietic tyrosine phosphatase HePTP – biochemical, set 2, SAR follow-up (AID 449736); assay type: functional
T3 sequence (P35236 whole entry): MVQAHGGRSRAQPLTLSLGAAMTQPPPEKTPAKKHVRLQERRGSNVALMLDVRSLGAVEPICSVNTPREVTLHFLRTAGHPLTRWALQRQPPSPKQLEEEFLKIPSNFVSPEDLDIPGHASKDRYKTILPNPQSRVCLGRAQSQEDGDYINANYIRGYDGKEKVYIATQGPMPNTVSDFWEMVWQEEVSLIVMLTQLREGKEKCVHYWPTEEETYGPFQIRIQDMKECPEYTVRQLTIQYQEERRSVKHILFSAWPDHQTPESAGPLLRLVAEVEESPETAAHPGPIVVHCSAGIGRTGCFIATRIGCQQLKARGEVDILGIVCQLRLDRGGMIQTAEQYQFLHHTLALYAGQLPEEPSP

[15] = biological target: Protein phosphatase methylesterase 1 (Homo sapiens, UniProt Q9Y570); assay: endogenous PME-1 and serine hydrolase inhibition – cell lysate, mouse brain cytosol, FP-rhodamine, gel ABPP, selectivity assay for PME-1 inhibitor project, dose response, panel member PME-1 Assay Panel member description: Inhibition of endogenously expressed PME-1 (AID 2366)
Chain of Protein phosphatase methylesterase 1 (Q9Y570 whole entry): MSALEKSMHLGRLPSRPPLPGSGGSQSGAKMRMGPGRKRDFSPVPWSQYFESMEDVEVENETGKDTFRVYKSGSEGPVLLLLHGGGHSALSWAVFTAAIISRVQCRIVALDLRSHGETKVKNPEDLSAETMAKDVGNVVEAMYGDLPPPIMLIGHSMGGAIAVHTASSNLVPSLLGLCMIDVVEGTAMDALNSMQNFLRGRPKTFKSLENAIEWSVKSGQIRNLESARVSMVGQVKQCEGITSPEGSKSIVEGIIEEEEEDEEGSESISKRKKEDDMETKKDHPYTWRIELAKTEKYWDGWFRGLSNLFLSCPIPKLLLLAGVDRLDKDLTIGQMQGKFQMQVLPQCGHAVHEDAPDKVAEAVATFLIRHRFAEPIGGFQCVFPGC

Coagulation factor XII = biological target: T4, Coagulation factor XII (Homo sapiens, UniProt P00748); assay: activated coagulation factor XII inhibitor potency, concentration-effect curve, cell-free (AID 716); assay type: functional
T4 sequence (P00748 whole entry): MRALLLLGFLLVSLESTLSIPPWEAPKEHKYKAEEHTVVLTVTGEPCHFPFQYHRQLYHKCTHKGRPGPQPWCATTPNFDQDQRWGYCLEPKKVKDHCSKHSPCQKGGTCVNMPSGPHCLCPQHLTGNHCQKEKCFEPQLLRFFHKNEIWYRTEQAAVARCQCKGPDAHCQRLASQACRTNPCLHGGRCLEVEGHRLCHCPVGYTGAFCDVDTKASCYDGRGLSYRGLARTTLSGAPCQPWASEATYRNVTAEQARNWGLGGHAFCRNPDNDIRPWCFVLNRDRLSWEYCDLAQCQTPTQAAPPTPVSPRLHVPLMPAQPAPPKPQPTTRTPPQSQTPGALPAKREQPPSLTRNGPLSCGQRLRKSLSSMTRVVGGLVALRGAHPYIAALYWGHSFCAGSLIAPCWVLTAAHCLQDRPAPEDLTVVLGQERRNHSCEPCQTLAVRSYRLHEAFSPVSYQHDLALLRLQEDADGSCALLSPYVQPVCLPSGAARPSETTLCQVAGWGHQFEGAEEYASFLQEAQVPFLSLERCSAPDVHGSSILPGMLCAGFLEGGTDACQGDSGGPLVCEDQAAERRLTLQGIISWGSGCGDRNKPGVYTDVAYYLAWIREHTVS

IC50 [14]: 87.1 µM (active)
SMILES: Cc1ccc(NC(=O)c2sc(=S)n(-c3cc(C)ccc3F)c2N)cc1

IC50 (Coagulation factor XII): > 50 µM (inactive)
SMILES: COc1ccc(NC(=O)CSc2nnc(CNC(=O)COc3ccc(Cl)cc3)o2)c(OC)c1

Continued, compound first:

SMILES: COc1ccc(-c2cc(C(=O)OC3CCOC3=O)c3ccccc3n2)cc1OC (centres undefined)
EC50 (Caspase-7): > 85.3 µM (inactive)
EC50 (Caspase-3): > 85.3 µM (inactive)

SMILES: CC1CCC(C(C)C)C(OC(=O)Cn2c(COc3ccccc3)[n+](C)c3ccccc32)C1 (centres undefined)
EC50 [1]: 14 µM (active)
IC50 (HEK293 [2]): 17.4 µM (inactive)
AC50 (INS1): 6.26 µM (active)
EC50 (Insulin-degrading enzyme [3]): > 54.7 µM (inactive)
AC50 [4]: 8.6 µM (active)
EC50 [5]: > 32 µM (inactive)
EC50 [6]: 0.588 µM (active)
EC50 (HEK293 [7]): > 54.7 µM (inactive)
EC50 [8]: > 60 µM (not active)
AC50 [9]: 6.94 µM (active)
AC50 [10]: 3.26 µM (active)
AC50 [11]: 6.35 µM (active)
AC50 [12]: 6.69 µM (active)
EC50 (Insulin-degrading enzyme [13]): > 54.7 µM (inactive)

SMILES: N#CC(C#N)=Cc1cccn1S(=O)(=O)c1ccc(F)cc1F
IC50 [15]: 20 µM (inactive)
